Columns and labels:
[1] = system: Macacine alphaherpesvirus 1; assay: Antiviral activity against Macacine herpesvirus 1 isolate A4 infected in african green monkey Vero cells by plaque reduction assay; type: functional, organism-based; settings: Macacine alphaherpesvirus 1, isolate A4, Vero
[2] = system: Macacine alphaherpesvirus 1; assay: Antiviral activity against Macacine herpesvirus 1 isolate MR1 infected in african green monkey Vero cells by plaque reduction assay; type: functional, organism-based; settings: Macacine alphaherpesvirus 1, isolate MR1, Vero
[3] = system: Macacine alphaherpesvirus 1; assay: Antiviral activity against Macacine herpesvirus 1 isolate A1 infected in african green monkey Vero cells by plaque reduction assay; type: functional, organism-based; settings: Macacine alphaherpesvirus 1, isolate A1, Vero
[4] = system: Macacine alphaherpesvirus 1; assay: Antiviral activity against Macacine herpesvirus 1 isolate MR11 infected in african green monkey Vero cells by plaque reduction assay; type: functional, organism-based; settings: Macacine alphaherpesvirus 1, isolate MR11, Vero
[5] = system: Macacine alphaherpesvirus 1; assay: Antiviral activity against Macacine herpesvirus 1 isolate MR7 infected in african green monkey Vero cells by plaque reduction assay; type: functional, organism-based; settings: Macacine alphaherpesvirus 1, isolate MR7, Vero
[6] = system: Macacine alphaherpesvirus 1; assay: Antiviral activity against Macacine herpesvirus 1 isolate MC2 infected in african green monkey Vero cells by plaque reduction assay; type: functional, organism-based; settings: Macacine alphaherpesvirus 1, isolate MC2, Vero
[7] = system: Macacine alphaherpesvirus 1; assay: Antiviral activity against thymidine kinase deficient Macacine herpesvirus 1 isolate E2490 infected in african green monkey Vero cells by plaque reduction assay; type: functional, organism-based; settings: Macacine alphaherpesvirus 1, isolate E2490, Vero
[8] = system: Macacine alphaherpesvirus 1; assay: Antiviral activity against Macacine herpesvirus 1 isolate MC1 infected in african green monkey Vero cells by plaque reduction assay; type: functional, organism-based; settings: Macacine alphaherpesvirus 1, isolate MC1, Vero
[9] = system: Macacine alphaherpesvirus 1; assay: Antiviral activity against Macacine herpesvirus 1 isolate A2 infected in african green monkey Vero cells by plaque reduction assay; type: functional, organism-based; settings: Macacine alphaherpesvirus 1, isolate A2, Vero
[10] = system: Macacine alphaherpesvirus 1; assay: Antiviral activity against Macacine herpesvirus 1 isolate MJ2 infected in african green monkey Vero cells by plaque reduction assay; type: functional, organism-based; settings: Macacine alphaherpesvirus 1, isolate MJ2, Vero
[11] = system: Macacine alphaherpesvirus 1; assay: Antiviral activity against Macacine herpesvirus 1 isolate A6 infected in african green monkey Vero cells by plaque reduction assay; type: functional, organism-based; settings: Macacine alphaherpesvirus 1, isolate A6, Vero
[12] = system: Macacine alphaherpesvirus 1; assay: Antiviral activity against Macacine herpesvirus 1 isolate MR4 infected in african green monkey Vero cells by plaque reduction assay; type: functional, organism-based; settings: Macacine alphaherpesvirus 1, isolate MR4, Vero
[13] = system: Macacine alphaherpesvirus 1; assay: Antiviral activity against Macacine herpesvirus 1 isolate MR6 infected in african green monkey Vero cells by plaque reduction assay; type: functional, organism-based; settings: Macacine alphaherpesvirus 1, isolate MR6, Vero
[14] = system: Macacine alphaherpesvirus 1; assay: Antiviral activity against Macacine herpesvirus 1 isolate MR5 infected in african green monkey Vero cells by plaque reduction assay; type: functional, organism-based; settings: Macacine alphaherpesvirus 1, isolate MR5, Vero
Human alphaherpesvirus 2 [15] = assay: Antiviral activity against HSV2 infected in african green monkey Vero cells by plaque reduction assay; type: functional, organism-based; settings: Human alphaherpesvirus 2, Vero
Human alphaherpesvirus 1 [16] = assay: Antiviral activity against HSV1 infected in african green monkey Vero cells by plaque reduction assay; type: functional, organism-based; settings: Human alphaherpesvirus 1, Vero
[17] = system: Macacine alphaherpesvirus 1; assay: Antiviral activity against Macacine herpesvirus 1 isolate MJ3 infected in african green monkey Vero cells by plaque reduction assay; type: functional, organism-based; settings: Macacine alphaherpesvirus 1, isolate MJ3, Vero
[18] = system: Macacine alphaherpesvirus 1; assay: Antiviral activity against Macacine herpesvirus 1 isolate MR2 infected in african green monkey Vero cells by plaque reduction assay; type: functional, organism-based; settings: Macacine alphaherpesvirus 1, isolate MR2, Vero
[19] = system: Macacine alphaherpesvirus 1; assay: Antiviral activity against Macacine herpesvirus 1 isolate MR8 infected in african green monkey Vero cells by plaque reduction assay; type: functional, organism-based; settings: Macacine alphaherpesvirus 1, isolate MR8, Vero
[20] = system: Macacine alphaherpesvirus 1; assay: Antiviral activity against Macacine herpesvirus 1 isolate MP1 infected in african green monkey Vero cells by plaque reduction assay; type: functional, organism-based; settings: Macacine alphaherpesvirus 1, isolate MP1, Vero
[21] = system: Macacine alphaherpesvirus 1; assay: Antiviral activity against Macacine herpesvirus 1 isolate A3 infected in african green monkey Vero cells by plaque reduction assay; type: functional, organism-based; settings: Macacine alphaherpesvirus 1, isolate A3, Vero
[22] = system: Macacine alphaherpesvirus 1; assay: Antiviral activity against Macacine herpesvirus 1 isolate MR10 infected in african green monkey Vero cells by plaque reduction assay; type: functional, organism-based; settings: Macacine alphaherpesvirus 1, isolate MR10, Vero
[23] = system: Macacine alphaherpesvirus 1; assay: Antiviral activity against Macacine herpesvirus 1 isolate MJ1 infected in african green monkey Vero cells by plaque reduction assay; type: functional, organism-based; settings: Macacine alphaherpesvirus 1, isolate MJ1, Vero
[24] = system: Macacine alphaherpesvirus 1; assay: Antiviral activity against Macacine herpesvirus 1 isolate A5 infected in african green monkey Vero cells by plaque reduction assay; type: functional, organism-based; settings: Macacine alphaherpesvirus 1, isolate A5, Vero
[25] = system: Macacine alphaherpesvirus 1; assay: Antiviral activity against Macacine herpesvirus 1 isolate E2490 infected in african green monkey Vero cells by plaque reduction assay; type: functional, organism-based; settings: Macacine alphaherpesvirus 1, isolate E2490, Vero
[26] = system: Macacine alphaherpesvirus 1; assay: Antiviral activity against Macacine herpesvirus 1 isolate MR9 infected in african green monkey Vero cells by plaque reduction assay; type: functional, organism-based; settings: Macacine alphaherpesvirus 1, isolate MR9, Vero
[27] = system: Macacine alphaherpesvirus 1; assay: Antiviral activity against Macacine herpesvirus 1 isolate MR3 infected in african green monkey Vero cells by plaque reduction assay; type: functional, organism-based; settings: Macacine alphaherpesvirus 1, isolate MR3, Vero
[28] = system: Macacine alphaherpesvirus 1; assay: Ratio of acyclovir EC50 to compound EC50 for Macacine herpesvirus 1 isolate MJ1 infected in african green monkey Vero cells; type: functional
[29] = system: Macacine alphaherpesvirus 1; assay: Ratio of acyclovir EC50 to compound EC50 for Macacine herpesvirus 1 isolate MJ2 infected in african green monkey Vero cells; type: functional
[30] = system: Macacine alphaherpesvirus 1; assay: Ratio of acyclovir EC50 to compound EC50 for Macacine herpesvirus 1 isolate A3 infected in african green monkey Vero cells; type: functional
[31] = system: Macacine alphaherpesvirus 1; assay: Ratio of acyclovir EC50 to compound EC50 for Macacine herpesvirus 1 isolate MR5 infected in african green monkey Vero cells; type: functional
[32] = system: Macacine alphaherpesvirus 1; assay: Ratio of acyclovir EC50 to compound EC50 for Macacine herpesvirus 1 isolate A2 infected in african green monkey Vero cells; type: functional
[33] = system: Macacine alphaherpesvirus 1; assay: Ratio of acyclovir EC50 to compound EC50 for Macacine herpesvirus 1 isolate A1 infected in african green monkey Vero cells; type: functional
[34] = system: Macacine alphaherpesvirus 1; assay: Ratio of acyclovir EC50 to compound EC50 for Macacine herpesvirus 1 isolate MP1 infected in african green monkey Vero cells; type: functional
[35] = system: Macacine alphaherpesvirus 1; assay: Ratio of acyclovir EC50 to compound EC50 for Macacine herpesvirus 1 isolate MR6 infected in african green monkey Vero cells; type: functional
[36] = system: Macacine alphaherpesvirus 1; assay: Ratio of acyclovir EC50 to compound EC50 for Macacine herpesvirus 1 isolate MC2 infected in african green monkey Vero cells; type: functional
[37] = system: Macacine alphaherpesvirus 1; assay: Ratio of acyclovir EC50 to compound EC50 for Macacine herpesvirus 1 isolate MR7 infected in african green monkey Vero cells; type: functional
[38] = system: Macacine alphaherpesvirus 1; assay: Ratio of acyclovir EC50 to compound EC50 for Macacine herpesvirus 1 isolate MR10 infected in african green monkey Vero cells; type: functional
[39] = system: Macacine alphaherpesvirus 1; assay: Ratio of acyclovir EC50 to compound EC50 for Macacine herpesvirus 1 isolate MR1 infected in african green monkey Vero cells; type: functional
[40] = system: Macacine alphaherpesvirus 1; assay: Ratio of acyclovir EC50 to compound EC50 for Macacine herpesvirus 1 isolate MR8 infected in african green monkey Vero cells; type: functional
[41] = system: Macacine alphaherpesvirus 1; assay: Ratio of acyclovir EC50 to compound EC50 for Macacine herpesvirus 1 isolate MR4 infected in african green monkey Vero cells; type: functional
[42] = system: Macacine alphaherpesvirus 1; assay: Ratio of acyclovir EC50 to compound EC50 for Macacine herpesvirus 1 isolate MR3 infected in african green monkey Vero cells; type: functional
Human alphaherpesvirus 1 [43] = assay: Ratio of acyclovir EC50 to compound EC50 for HSV1 infected in african green monkey Vero cells; type: functional
[44] = system: Macacine alphaherpesvirus 1; assay: Ratio of acyclovir EC50 to compound EC50 for Macacine herpesvirus 1 isolate MR2 infected in african green monkey Vero cells; type: functional
[45] = system: Macacine alphaherpesvirus 1; assay: Ratio of acyclovir EC50 to compound EC50 for Macacine herpesvirus 1 isolate MJ3 infected in african green monkey Vero cells; type: functional
[46] = system: Macacine alphaherpesvirus 1; assay: Ratio of acyclovir EC50 to compound EC50 for Macacine herpesvirus 1 isolate MC1 infected in african green monkey Vero cells; type: functional
[47] = system: Macacine alphaherpesvirus 1; assay: Ratio of acyclovir EC50 to compound EC50 for Macacine herpesvirus 1 isolate MR9 infected in african green monkey Vero cells; type: functional
Human alphaherpesvirus 2 [48] = assay: Ratio of acyclovir EC50 to compound EC50 for HSV 2 infected in african green monkey Vero cells; type: functional
[49] = system: Macacine alphaherpesvirus 1; assay: Ratio of acyclovir EC50 to compound EC50 for Macacine herpesvirus 1 isolate MR11 infected in african green monkey Vero cells; type: functional
[50] = system: Macacine alphaherpesvirus 1; assay: Ratio of acyclovir EC50 to compound EC50 for Macacine herpesvirus 1 isolate A6 infected in african green monkey Vero cells; type: functional
[51] = system: Macacine alphaherpesvirus 1; assay: Ratio of acyclovir EC50 to compound EC50 for Macacine herpesvirus 1 isolate E2490 infected in african green monkey Vero cells; type: functional
[52] = system: Macacine alphaherpesvirus 1; assay: Ratio of acyclovir EC50 to compound EC50 for Macacine herpesvirus 1 isolate A5 infected in african green monkey Vero cells; type: functional
[53] = system: Macacine alphaherpesvirus 1; assay: Ratio of acyclovir EC50 to compound EC50 for Macacine herpesvirus 1 isolate A4 infected in african green monkey Vero cells; type: functional

## Nc1ncnc2c1ncn2[C@@H]1O[C@H](CO)[C@@H](O)[C@@H]1O [VIDARABINE]
[1]
  EC50: 26.5 µM
[2]
  EC50: 26.5 µM
[3]
  EC50: 26.5 µM
[4]
  EC50: 26.5 µM
[5]
  EC50: 26.5 µM
[6]
  EC50: 26.5 µM
[7]
  EC50: 37.8 µM
[8]
  EC50: 26.5 µM
[9]
  EC50: 26.5 µM
[10]
  EC50: 26.5 µM
[11]
  EC50: 26.5 µM
[12]
  EC50: 26.5 µM
[13]
  EC50: 26.5 µM
[14]
  EC50: 26.5 µM
Human alphaherpesvirus 2 [15]
  EC50: 26.5 µM
Human alphaherpesvirus 1 [16]
  EC50: 26.5 µM
[17]
  EC50: 26.5 µM
[18]
  EC50: 26.5 µM
[19]
  EC50: 26.5 µM
[20]
  EC50: 26.5 µM
[21]
  EC50: 26.5 µM
[22]
  EC50: 26.5 µM
[23]
  EC50: 26.5 µM
[24]
  EC50: 26.5 µM
[25]
  EC50: 26.5 µM
[26]
  EC50: 26.5 µM
[27]
  EC50: 26.5 µM

## Cc1cn([C@H]2O[C@@H](CO)[C@H](O)[C@H]2F)c(=O)[nH]c1=O [CLEVUDINE]
[28]
  Ratio EC50: 100
[29]
  Ratio EC50: 100
[30]
  Ratio EC50: 100
[31]
  Ratio EC50: 100
[32]
  Ratio EC50: 100
[33]
  Ratio EC50: 100
[34]
  Ratio EC50: 100
[35]
  Ratio EC50: 100
[36]
  Ratio EC50: 100
[37]
  Ratio EC50: 100
[38]
  Ratio EC50: 100
[39]
  Ratio EC50: 100
[40]
  Ratio EC50: 100
[41]
  Ratio EC50: 100
[42]
  Ratio EC50: 100
Human alphaherpesvirus 1 [43]
  Ratio EC50: 100
[44]
  Ratio EC50: 100
[45]
  Ratio EC50: 100
[46]
  Ratio EC50: 100
[47]
  Ratio EC50: 100
Human alphaherpesvirus 2 [48]
  Ratio EC50: 100
[49]
  Ratio EC50: 100
[50]
  Ratio EC50: 100
[51]
  Ratio EC50: 100
[52]
  Ratio EC50: 100
[53]
  Ratio EC50: 100

Source: ChEMBL document CHEMBL1212758 (Antimicrob Agents Chemother, 2010)
